This is an account of results in US6919314B1, “Bioactive whey protein hydrolysate” (New Zealand Dairy Board, priority 1998, dated 2005).

Marks after values point to notes of the source that are not given here. Ends that are not written are not given here. Peptide text beside a SMILES is read from it.

The subject of assay [1] is spontaneously hypertensive rats (SHR/N). Briefly: In vivo blood pressure in spontaneously hypertensive rats (tail cuff). The arrangement: species or system rat. To be noted: 30 mg/Kg bodyweight/day for 8 weeks, compared with the hydrolysate.
Source text: The rat strain has been specifically selected for their development of high blood pressure on maturing, and is used extensively to monitor the effect of blood pressure lowering agents.
Eight week old rats were individually housed in plastic rat cages and kept in temperature controlled facilities throughout the trial. They had unlimited access to water and were fed commercial rat chow ad libitum. The test products were given orally as a single daily dose for 8 weeks during which time changes in blood pressure were monitored.
A further assay has as its target T1, rabbit lung ACE (Oryctolagus cuniculus, UniProt P12822).
T1 construct: reagents from Sigma product 305-10) consisting of rabbit lung ACE; purchased Sigma Chemical Corporation, St Louis, Mo., USA 305-10; host or cells: rabbit lung (tissue-derived enzyme)
T1 sequence (P12822 34-1310): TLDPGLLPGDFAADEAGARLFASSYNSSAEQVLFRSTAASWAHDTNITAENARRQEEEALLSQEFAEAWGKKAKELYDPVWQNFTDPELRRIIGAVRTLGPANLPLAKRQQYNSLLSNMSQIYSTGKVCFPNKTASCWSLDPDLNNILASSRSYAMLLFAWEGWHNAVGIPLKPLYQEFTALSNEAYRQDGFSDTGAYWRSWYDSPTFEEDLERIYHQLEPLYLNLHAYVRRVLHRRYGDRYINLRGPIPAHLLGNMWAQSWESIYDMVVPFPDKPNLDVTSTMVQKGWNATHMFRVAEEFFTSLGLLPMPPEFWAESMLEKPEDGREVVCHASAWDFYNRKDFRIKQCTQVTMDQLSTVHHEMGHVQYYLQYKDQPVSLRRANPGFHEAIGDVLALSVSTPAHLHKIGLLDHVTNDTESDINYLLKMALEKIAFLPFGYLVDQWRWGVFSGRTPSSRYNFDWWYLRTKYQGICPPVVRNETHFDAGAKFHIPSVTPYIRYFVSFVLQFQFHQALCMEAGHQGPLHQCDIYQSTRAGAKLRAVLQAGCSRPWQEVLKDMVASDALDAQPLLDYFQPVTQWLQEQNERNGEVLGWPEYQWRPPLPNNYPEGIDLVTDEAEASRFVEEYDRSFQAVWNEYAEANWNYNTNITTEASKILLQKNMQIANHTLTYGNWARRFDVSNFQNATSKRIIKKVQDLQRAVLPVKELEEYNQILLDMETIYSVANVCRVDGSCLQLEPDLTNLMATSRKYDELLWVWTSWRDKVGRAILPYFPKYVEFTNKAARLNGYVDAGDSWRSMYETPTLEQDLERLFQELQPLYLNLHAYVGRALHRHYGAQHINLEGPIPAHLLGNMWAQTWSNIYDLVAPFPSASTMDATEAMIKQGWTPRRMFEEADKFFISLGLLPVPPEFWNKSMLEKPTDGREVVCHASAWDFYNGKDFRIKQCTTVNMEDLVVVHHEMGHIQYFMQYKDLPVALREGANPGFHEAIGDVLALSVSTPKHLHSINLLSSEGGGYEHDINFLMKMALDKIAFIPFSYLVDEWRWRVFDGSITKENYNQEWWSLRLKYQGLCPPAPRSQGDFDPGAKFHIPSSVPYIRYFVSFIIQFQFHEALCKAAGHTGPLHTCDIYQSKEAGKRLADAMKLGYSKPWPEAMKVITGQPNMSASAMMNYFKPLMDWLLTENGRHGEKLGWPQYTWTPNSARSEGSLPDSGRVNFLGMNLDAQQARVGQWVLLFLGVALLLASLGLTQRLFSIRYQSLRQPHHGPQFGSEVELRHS
Briefly: ACE-I activity using FAPGG as substrate (method of Cushman & Cheung). The assay is classed as biochemical. To be noted: colorimetric substrate FAPGG; for IC50: purified peptide, read-out: Activity (IC50 in mg L^−1) (converted). How it is done:
A pH of 7.0 and an enzyme substrate ratio of 0.3% w/w was used for the hydrolysis. The hydrolysate was adjusted to pH 5.0 and heated at 65° C. for 30 min to inactivate the enzyme. […] ACE-I activities are expressed as the amount of material (g/L) needed to reduce the activity of the ACE-I enzyme by 50%.
Each fraction was lyophilised and the amount of peptide material present was measured gravimetrically. […] If a peptide inhibits ACE, the change in absorbance at 340 nm is reduced. […] The eluate was collected using the fraction collector set to collect 0.5 min fractions.
Samples from each fraction were analysed using an analytical reverse-phase HPLC column, and those fractions containing a single, identical peptide were pooled. Each pooled fraction was lyophilised and the weight of the peptide present was determined gravimetrically. The purified peptides were assayed for ACE-I activity as before and the IC50 was calculated for […] individual peptide.

`C[C@H](CS)C(=O)N1CCC[C@H]1C(=O)O` [captopril]: in assay [1], the systolic blood pressure result was “effect of the hydrolysate was not as great as that of captopril”.
As to `CSCC[C@H](N)C(=O)N[C@@H](CCCCN)C(=O)NCC(=O)O` [MKG, Met-Lys-Gly] (H-Met-Lys-Gly-OH; N-terminus and C-terminus assumed), on rabbit lung ACE, the IC50 was 71.8 µM.
As to “LHLPLP [LHLPLP, Leu-His-Leu-Pro-Leu-Pro]”, the IC50 on rabbit lung ACE was 10.2 µM.
Still for that read-out and setting: the same measure for ALPMH [ALPMH, Ala-Leu-Pro-Met-His]: 21.1 µM; for “VTSTAV [VTSTAV, Val-Thr-Ser-Thr-Ala-Val]”: 52 µM; for LVYPFPGPIPNSLPQNIPP: 9.22 µM.
Consider “Leu-Phe-Arg-Glu (LFRE; not fully specified; printed: Leu-Phe-Arg-Glu) [LFRQ, origin αs1-CN(136-139)]”, for which, in the assay with rabbit lung ACE (activity measured with that of another peptide of unknown origin), the “Activity (IC50 in mg L^−1)” value is recorded as 17^h mg L^−1.
Take LDIQK [LDIQK, Leu-Asp-Ile-Gln-Lys]: at rabbit lung ACE, the IC50 is 27.6 µM.
The same measure, in the same setting: the same measure for LIVTQ [LIVTQ, Leu-Ile-Val-Thr-Gln]: 29.7 µM.
Same read-out and setting: the same measure for “ILKEKH [ILKEKH, Ile-Leu-Lys-Glu-Lys-His]”: 26.1 µM.
For `CC(C)C[C@H](N)C(=O)N[C@@H](Cc1ccccc1)C(=O)N[C@@H](CO)C(=O)N[C@@H](Cc1c[nH]cn1)C(=O)O` [LFSH, Leu-Phe-Ser-His] (H-LFSH-OH; N-terminus and C-terminus assumed), the IC50 on rabbit lung ACE was 59.7 µM.
